Results on one compound are retold here after ChEMBL document CHEMBL4602694, “Suppression of Drug-Resistant Non-Small-Cell Lung Cancer with Inhibitors Targeting Minichromosomal Maintenance Protein” (J Med Chem, 2020).

Structures are written as SMILES. Calls of active or inactive are those of the source. The rule behind the calls is not given here. Where only a bound is given, the exact number is not on record here.

In series [1] the target is T1, DNA replication licensing factor MCM6 (Homo sapiens) (UniProt Q14566).
T1 sequence (whole entry): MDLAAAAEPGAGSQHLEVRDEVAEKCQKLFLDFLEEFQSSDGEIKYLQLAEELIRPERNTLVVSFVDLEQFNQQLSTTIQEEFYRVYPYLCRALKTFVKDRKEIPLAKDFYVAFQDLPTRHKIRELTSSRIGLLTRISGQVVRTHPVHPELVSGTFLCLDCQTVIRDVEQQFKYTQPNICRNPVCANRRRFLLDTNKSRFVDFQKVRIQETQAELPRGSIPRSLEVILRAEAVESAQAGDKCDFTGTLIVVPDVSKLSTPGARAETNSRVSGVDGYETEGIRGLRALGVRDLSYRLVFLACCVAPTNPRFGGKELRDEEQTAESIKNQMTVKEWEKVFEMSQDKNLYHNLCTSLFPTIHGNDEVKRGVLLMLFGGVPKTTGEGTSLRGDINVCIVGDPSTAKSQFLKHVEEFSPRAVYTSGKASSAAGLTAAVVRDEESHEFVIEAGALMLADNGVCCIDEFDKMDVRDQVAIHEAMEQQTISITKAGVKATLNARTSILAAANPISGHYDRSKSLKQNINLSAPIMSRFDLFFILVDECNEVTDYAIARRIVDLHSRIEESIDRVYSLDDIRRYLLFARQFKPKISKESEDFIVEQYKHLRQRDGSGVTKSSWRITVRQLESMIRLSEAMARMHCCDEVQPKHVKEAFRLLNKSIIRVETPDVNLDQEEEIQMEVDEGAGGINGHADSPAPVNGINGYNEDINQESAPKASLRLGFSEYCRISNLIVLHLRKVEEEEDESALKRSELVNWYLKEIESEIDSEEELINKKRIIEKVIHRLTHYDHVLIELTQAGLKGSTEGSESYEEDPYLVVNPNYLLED
Put plainly: Induction of ubiquitination of MCM6 in human NCI-H1975 cells incubated for 48 hrs by immunoblot analysis (reference value: 1). The class given is cell-based. For orientation: Immunoblotting shows a protein as a band on a membrane.

The target in series [2] is T1, DNA replication licensing factor MCM6 (Homo sapiens). Briefly: Induction of ubiquitination of MCM6 in human NCI-H1975 cells at 140 nM in presence of MG132 incubated for 48 hrs followed by MG132 addition and measured after 12 hrs by immunoblot analysis. It counts as cell-based.
A short description of series [3]: Toxicity in athymic nude BALB/c mouse xenografted with human NCI-H1975 cells assessed as effect on serum creatinine at 1 or 4 mg/kg, ip administered for 4 weeks. It counts as organism-based. The following applies: in vivo, 672 h. (In general: A xenograft is tissue or cells of one species grown in another, often human tumour cells in immunodeficient mice.)
Series [4] addresses T2, DNA replication licensing factor MCM5 (Homo sapiens) (UniProt P33992).
T2 sequence (whole entry): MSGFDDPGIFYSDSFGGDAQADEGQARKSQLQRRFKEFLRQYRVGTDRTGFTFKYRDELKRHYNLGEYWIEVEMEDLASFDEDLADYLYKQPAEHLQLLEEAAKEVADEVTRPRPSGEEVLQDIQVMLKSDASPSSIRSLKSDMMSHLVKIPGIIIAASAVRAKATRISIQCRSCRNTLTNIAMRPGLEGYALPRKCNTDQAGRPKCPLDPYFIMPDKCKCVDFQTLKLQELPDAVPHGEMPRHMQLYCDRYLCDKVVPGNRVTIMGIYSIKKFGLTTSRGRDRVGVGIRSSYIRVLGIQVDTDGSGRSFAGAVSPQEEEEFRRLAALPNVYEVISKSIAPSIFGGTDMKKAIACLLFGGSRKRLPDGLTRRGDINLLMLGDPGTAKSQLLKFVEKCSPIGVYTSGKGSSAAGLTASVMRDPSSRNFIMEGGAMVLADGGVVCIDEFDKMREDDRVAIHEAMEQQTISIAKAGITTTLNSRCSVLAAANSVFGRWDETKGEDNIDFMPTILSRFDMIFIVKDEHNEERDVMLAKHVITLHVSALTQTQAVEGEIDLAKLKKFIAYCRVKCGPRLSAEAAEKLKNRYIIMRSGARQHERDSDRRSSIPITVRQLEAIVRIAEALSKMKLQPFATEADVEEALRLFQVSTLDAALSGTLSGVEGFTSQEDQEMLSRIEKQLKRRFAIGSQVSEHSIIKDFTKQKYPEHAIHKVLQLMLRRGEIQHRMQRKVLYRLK
Put plainly: Induction of ubiquitination of MCM5 in human NCI-H1975 cells incubated for 24 hrs by immunoblot analysis (reference value: 1). The class given is cell-based.

Series [5] concerns the target DNA replication licensing factor MCM2 (Homo sapiens) (UniProt P49736). Put plainly: Induction of ubiquitination of MCM2 in human NCI-H1975 cells in presence of MG132 incubated for 48 hrs followed by MG132 addition and measured after 12 hrs by immunoblot analysis (reference value: 1.4). It counts as cell-based.
Series [6] deals with DNA replication licensing factor MCM7 (Homo sapiens) (UniProt P33993). Put plainly: Induction of ubiquitination of MCM7 in human NCI-H1975 cells incubated for 48 hrs by immunoblot analysis (reference value: 1). It counts as cell-based.
For series [7], the system named is NCI-H1975. Briefly: Cell cycle arrest in human NCI-H1975 cells assessed as accumulation in G2/M phase at 140 nM incubated for 72 hrs by propidium iodide base flow cytometry analysis (reference value: 17 %). It counts as functional. (A flow cytometer gives signals particle by particle.)
Series [8] relates to NCI-H1975. Put plainly: Antitumor activity against human NCI-H1975 cells xenografted in athymic nude BALB/c mouse assessed as tumor growth at 4 mg/kg, ip administered for 4 weeks (reference value: 1217 +/- 516.6 cu.mm). It counts as functional.
For series [9], the target named is DNA replication licensing factor MCM2 (Homo sapiens) (UniProt P49736). Put plainly: Induction of ubiquitination of FLAG-tagged MCM2 in human 293T cells incubated for 4 hrs by magnetic beads technique based immunoblot analysis. The class given is cell-based. The following applies: HEK-293T.
Series [10] concerns the target DNA replication licensing factor MCM7 (Homo sapiens) (UniProt P33993). Put plainly: Induction of ubiquitination of MCM7 in human NCI-H1975 cells incubated for 72 hrs by immunoblot analysis (reference value: 1). It counts as cell-based.
Series [11] concerns NCI-H1975. Put plainly: Antitumor activity against human NCI-H1975 cells xenografted in athymic nude BALB/c mouse assessed as tumor growth inhibition at 4 mg/kg, ip administered for 4 weeks relative to control. As to conditions: 672 h, read-out: TGI. The class given is functional.
A short description of series [12]: Selectivity index, ratio of IC50 for human bronchial epithelial cells to IC50 for human PC9IR cells. It counts as toxicity. As to conditions: human bronchial epithelial cells versus PC9IR cells, read-out: Ratio IC50.

DNA replication licensing factor MCM2 (Homo sapiens), sequence (P49736 whole entry): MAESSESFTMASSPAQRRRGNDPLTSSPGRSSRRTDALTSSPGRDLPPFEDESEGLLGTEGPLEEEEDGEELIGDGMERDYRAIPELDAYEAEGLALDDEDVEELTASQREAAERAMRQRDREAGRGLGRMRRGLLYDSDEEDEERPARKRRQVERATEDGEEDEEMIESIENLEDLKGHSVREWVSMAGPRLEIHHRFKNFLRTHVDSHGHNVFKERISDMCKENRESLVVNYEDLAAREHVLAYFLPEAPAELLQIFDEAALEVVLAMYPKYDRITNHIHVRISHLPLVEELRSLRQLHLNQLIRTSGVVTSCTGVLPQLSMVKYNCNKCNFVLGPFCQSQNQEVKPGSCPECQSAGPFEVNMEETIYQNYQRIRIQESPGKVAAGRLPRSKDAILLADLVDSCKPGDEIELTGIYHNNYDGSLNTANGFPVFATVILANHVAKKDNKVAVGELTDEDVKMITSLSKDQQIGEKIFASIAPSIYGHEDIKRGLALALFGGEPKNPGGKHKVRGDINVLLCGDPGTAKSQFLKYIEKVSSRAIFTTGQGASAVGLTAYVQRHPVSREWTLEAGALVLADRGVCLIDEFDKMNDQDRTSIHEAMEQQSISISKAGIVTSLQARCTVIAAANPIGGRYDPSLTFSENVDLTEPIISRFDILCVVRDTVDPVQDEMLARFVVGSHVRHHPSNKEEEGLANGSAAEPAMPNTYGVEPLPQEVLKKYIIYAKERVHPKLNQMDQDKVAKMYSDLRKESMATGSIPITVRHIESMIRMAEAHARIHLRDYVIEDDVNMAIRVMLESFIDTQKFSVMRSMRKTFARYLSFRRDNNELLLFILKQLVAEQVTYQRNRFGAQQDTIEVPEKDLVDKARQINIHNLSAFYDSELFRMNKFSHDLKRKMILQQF
DNA replication licensing factor MCM7 (Homo sapiens), sequence (P33993 whole entry): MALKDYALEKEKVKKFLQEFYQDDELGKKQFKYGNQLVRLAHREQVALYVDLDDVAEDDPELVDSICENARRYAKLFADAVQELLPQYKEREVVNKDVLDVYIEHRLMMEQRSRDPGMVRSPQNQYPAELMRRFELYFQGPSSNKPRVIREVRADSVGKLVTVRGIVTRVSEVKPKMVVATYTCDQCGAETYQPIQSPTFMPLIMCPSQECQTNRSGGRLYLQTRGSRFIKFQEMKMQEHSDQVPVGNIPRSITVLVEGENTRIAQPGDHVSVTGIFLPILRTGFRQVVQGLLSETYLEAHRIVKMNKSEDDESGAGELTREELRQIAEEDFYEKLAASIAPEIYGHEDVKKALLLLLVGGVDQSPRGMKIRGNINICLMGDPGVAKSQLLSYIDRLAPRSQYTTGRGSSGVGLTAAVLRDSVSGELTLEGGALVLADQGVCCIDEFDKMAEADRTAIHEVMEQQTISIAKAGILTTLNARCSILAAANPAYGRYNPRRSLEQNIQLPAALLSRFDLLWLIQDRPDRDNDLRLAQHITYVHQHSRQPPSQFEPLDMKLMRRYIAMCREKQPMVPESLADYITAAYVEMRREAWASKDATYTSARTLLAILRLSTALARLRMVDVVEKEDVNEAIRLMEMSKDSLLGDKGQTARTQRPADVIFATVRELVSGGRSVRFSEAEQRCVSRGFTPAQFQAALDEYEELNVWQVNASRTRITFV

Regarding `Cc1oc2c(c1C(=O)NCCCn1ccnc1)C(=O)c1ccccc1C2=O`, the Activity was 0.4 in series [1]; “Non-Toxic” in [3]; 0.8 in series [4]; 1.6 in series [5]; 0.5 in [6]; 38% in [7]. Also, the Activity in [8] was 518 mm3; in series [10] it was 0.4. In addition, the outcome in [2] and in series [9] was Active. For the same compound, the inhibition in vivo at 4 mg/kg in [11] was determined as 59%. Further, in series [12], the selectivity ratio is > 10.
